Patent US12385008B2, “Method for producing retinal tissue” (SUMITOMO PHARMA CO., LTD., priority 2015, dated 2025)

Assays:
[1] = tested on: human iPS cells (1231A3 strain); assay: Microscopic observation of collapse of cell aggregates from human iPS cells (Example 2); assay type: cell-based; conditions: 10 days after start of suspension culture, FIG. 2
Method: (§1) iPS cells derived from human peripheral blood derived-mononuclear cells established from ePMBC (registered trade mark) of Cellular Technology Limited (1231A3 strain, Kyoto University) were used. Undifferentiated maintenance culture of these iPS cells under feeder cell-free conditions was performed according to the method described in “Nakagawa, M. et. al., Sci. Rep. 2014 Jan. 8; 4: 3594”. As the medium, “StemFit (registered trade mark)” AK03 medium (Ajinomoto Co., Inc.) was used and iMatrix-511 (Nippi) was used as a culture substrate.
Production of retinal tissue including a step of culturing in a medium containing an MEK inhibitor, a PKC inhibitor or a Sonic hedgehog signal transduction pathway activating substance was performed as follows. Human iPS cells under culture for maintaining an undifferentiated state were treated with 0.5×TrypLE select (mixture of equal amounts of TrypLE select (Life Technologies) and 0.5 mM EDTA/PBS(−)), scraped using a cell scraper, dispersed to single cells by pipetting, seeded in a 6-well culture plate coated with iMatrix-511 (0.5 μg/cm^2) at 1.2×10^4 cells per 1 well, and cultured in a StemFit medium containing Y-27632 (Wako Pure Chemical Industries, Ltd.) (final concentration 10 μM) as a ROCK inhibitor under 37° C., 5% CO2 conditions. At 2 days after the seeding, PD0325901 (SIGMA) (final concentration 1 μM) as an MEK inhibitor and Go6983 (SIGMA) (final concentration 2 μM) as a PKC inhibitor were added and the mixture was cultured for 5 days, or at 6 days after seeding, PD0325901 (final concentration 1 μM) was added and the mixture was cultured for […] (completion of step 1). The cells cultured in the medium containing the above-mentioned inhibitors were treated with 0.5×TrypLE select, scraped using a cell scraper, dispersed to single cells by pipetting, seeded in a 96-well culture plate (PrimeSurface 96 V-BOTTOM plate, SUMITOMO BAKELITE CO., LTD.) at 1.0×10^4 cells per 1 well, and cultured in 100 μl of a gfCDM+KSR medium [45% IMDM (Life Technologies), 45% F12 (Life Technologies), 10% KSR (Life Technologies), 1% Chemically defined lipid concentrate (Life Technologies), 450 μM 1-Thioglycerol (SIGMA)] supplemented with Y-27632 (final concentration 20 μM) (second step SAG(−)) or seeded in a gfCDM+KSR medium supplemented with SAG (Enzo) (final concentration 30 nM) (second step SAG(+)) and cultured in suspension under 37° C., 5% CO2 conditions. Cell aggregates were formed by 2 days after the start of the suspension culture (completion of step 2). […]

[2] = tested on: human iPS cells (1231A3 strain); assay: Pax6 and Chx10 immunostaining of cell aggregates from human iPS cells (Example 2); assay type: cell-based; conditions: first step MEK inhibitor ± PKC inhibitor; second step with 30 nM SAG; BMP4 1.5 nM from day 3; 22 days after start of suspension culture; FIG. 3
Method: as §1
Production of retinal tissue including a step of culturing in a medium containing an MEK inhibitor, a PKC inhibitor or a Sonic hedgehog signal transduction pathway activating substance was performed as follows. Human iPS cells under culture for maintaining an undifferentiated state were treated with 0.5×TrypLE select (mixture of equal amounts of TrypLE select (Life Technologies) and 0.5 mM EDTA/PBS(−)), scraped using a cell scraper, dispersed to single cells by pipetting, seeded in a 6-well culture plate coated with iMatrix-511 (0.5 μg/cm^2) at 1.2×10^4 cells per 1 well, and cultured in a StemFit medium containing Y-27632 (Wako Pure Chemical Industries, Ltd.) (final concentration 10 μM) as a ROCK inhibitor under 37° C., 5% CO2 conditions. […]

SMILES | collapse of aggregates ([1]; 1-day treatment in first step (1 μM), second step SAG(+) (30 nM SAG)) | collapse of aggregates ([1]; 1-day treatment in first step (1 μM), second step SAG(−)) | collapse of aggregates ([1]; 5-day treatment in first step (PD0325901 1 μM, Go6983 2 μM), irrespective of presence or absence of SAG in second step) | Pax6, Chx10 (retinal progenitor cell markers) co-positive cells in cell aggregates [2] | collapse of aggregates ([1]; non-treatment in first step, second step SAG(+) (30 nM SAG))
O=C(NOC[C@H](O)CO)c1ccc(F)c(F)c1Nc1ccc(I)cc1F [PD0325901] | collapse of aggregates was hardly observed | collapse of aggregates was observed | Collapse of aggregates was not observed | Pax6, Chx10 co-positive cells were confirmed | –
CNC1CCC(N(Cc2cccc(-c3ccncc3)c2)C(=O)c2sc3ccccc3c2Cl)CC1 (centres unmarked) [SAG, N-methyl-N′-(3-pyridinylbenzyl)-N′-(3-chlorobenzo[b]thiophene-2-carbonyl)-1,4-diaminocyclohexane] | – | – | – | – | collapse of aggregates was hardly observed
